A short description of data set [1]: In vitro SPF measurement in a chemical solvent (Diffey and Robson). The settings on record: ethyl acetate, 10 μg/ml, transmittance 290-400 nm. On the procedure: The in vitro methods of determining the protective effectiveness of sun products consist of measuring by transmission spectrophotometry the absorption spectrum of the filter in solution or of the product applied on a substrate with the aim of simulating the surface of the skin. The effectiveness against UVB and/or UVA rays, or the effect on the cutaneous response, are then determined by calculation, taking into account or not the UV radiation action spectrum for the damage considered.
The Sayre/Agin and Diffey/Robson method, used since the 1990s, involves a comparative measurement, with the aid of an integrating-sphere spectroradiometer, of the transition from 290 nm to 400 nm in 5 nm steps, the sample being subjected to UV radiation from a stable known source covering the whole of the UV spectrum (unfiltered xenon).
Diffey and Robson evaluate the erythemal response by the following calculation:
[formula] E(λ)=spectral irradiation in W(m-^2) (nm^−1) at 40° N sun at 20° zenith angle • ε=erythematous capacity
[formula] N(λ)=number of values for a given wavelength
The Diffey and Robson formula makes it possible to determine SPF from the measurement of transmittance between 290 nm and 400 nm. Transmittance is measured in solution in ethyl acetate at a concentration of 10 μg/ml using a UV-visible spectrophotometer (Varian CARY 50 Scan).
[formula] T(λ)=transmittance at wavelength λ

The nature of data set [2]: Spectral characteristics: molar extinction coefficient and specific absorbance (UV spectrophotometry in ethyl acetate). In kind it is physicochemical. The settings on record: 10 μg/ml; for Maximum molar extinction coefficient UVA / Maximum specific absorbance UVA: UVA band; for Maximum molar extinction coefficient UVB / Maximum specific absorbance UVB: UVB band. From the text: The calculation of the molar extinction coefficient (ε) is made from the Beer-Lambert law:
[formula] Wherein: • A=absorbance • I0=intensity of the incident light • I=intensity of the transmitted light • ε=molar extinction (or molar absorbance) coefficient in M^−1 cm^−1 • l=path length in cm • c=concentration in mol/l
The molar extinction coefficient can be expressed with respect to a given mass of the product. It thus makes it possible to be able to compare the coefficients of extinction between products for the same given quantity. This quantity is 1% by weight. The molar extinction coefficient thus becomes the specific absorbance (A1cm^1%).
It is expressed as follows:
[formula] Wherein: • A1cm^1%=specific absorbance • ε=molar extinction coefficient • M=molar mass
The spectral characteristics of the compounds in comparison with commercial filters at a concentration of 10 μg/ml are summarized in tables 2-1 and 2-2.
Procedure: The products are dissolved in ethyl acetate to a concentration of 10 μg/ml. The spectra are measured using a dual-beam spectrophotometer (Varian CARY 50 Scan) between 290 nm and 400 nm.

Data set [3] is described as follows: Spectral distribution in UVA and UVB, 290 nm to 400 nm. The format is physicochemical. The settings on record: for Absorption peaks: range from 290 nm to 400 nm; for Spectral distribution (UV bands absorbed): absorption spectra, FIGS. 1-3. An excerpt: The products tested are classified according to spectral distribution in UVA and UVB in a range from 290 nm to 400 nm. It is possible to differentiate them according to their spectral distribution: Products with a narrow spectrum: • Products absorbing in the range between 280 nm and 320 nm (UVB) • Products absorbing in the range between 320 nm and 400 nm (UVA) Products with a broad spectrum: • Products absorbing in UVB (280-320 nm) and UVA-II […] • Products covering UVB and UVA (280-400 nm).

A short description of data set [4]: Photostability in solution in a chemical solvent (Suntest CPS+). In kind it is physicochemical. The settings on record: 25 μg deposited from methanol, absorbance vs non-irradiated control, in % (unit assumed); for Photostability at 5 MED, mean: Suntest irradiation 5 MED; for Photostability at 10 MED, mean: Suntest irradiation 10 MED. From the text:
A Suntest CPS+(Atlas, Linsengenicht/Altenhasslan, Germany) was used. The Suntest makes it possible to reproduce the solar spectrum and thus to carry out exposures inside at any time without weather constraints.
The radiance of the solar simulator was carefully measured with a spectroradiometer (MSS 2044, Bielefeld, Germany). UVB and UVA intensities were 0.49 mW/cm^2 and 6.32 mW/cm^2, respectively. The MED value defined by COLIPA is 5.6 J/cm^2 in total UV (22). The UV total (UVA+UVB) accounts for 14.8% of the energy delivered by the lamp (power 460 W/m^2). An irradiation dose equivalent to 1 MED corresponds to 37.83 J/cm^2 (in total spectrum) delivered by the lamp.
The Suntest test duration is calculated using the following formula: t=H/E with: • E=illumination energy in W/m^2 • H=irradiation dose in J/m^2 • t=duration of the test in s
The solutions of the compounds are prepared at a concentration of 500 μg/ml in methanol. 50 μl (25 μg) of each solution are deposited in a crystallizer, then irradiated in the Suntest at 5, 10 and/or 20 MED. A non-irradiated control is prepared (deposit of 50 μl of solution and addition of 2.450 ml of methanol). The solvent evaporates during irradiation and the products are taken up in 2.5 ml of methanol. After irradiation, the absorbance of each solution is measured with the UV-visible spectrophotometer (Varian CARY 50 Scan).

Data set [5] is described as follows: Solubility study in solvents or excipients used in cosmetics. The format is physicochemical. The settings on record: for Solubilities: Soluble (solvent in which the compound is soluble): value = solvent; for Solubilities: Insoluble (solvent in which the compound is insoluble): value = solvent named in the Insoluble column.
Setting [6] is: excipient Finsol V NT ® (C12-C15 alkyl benzoate).

“Also recorded” adds a separate entry of the source.

In data set [1], `CCCCC(CC)COc1ccc(-c2nc(-c3ccc(OC)cc3)nc(-c3ccc(OCC(CC)CCCC)cc3O)n2)c(O)c1` (stereo not drawn) [Tinosorb S ®, reference compound] registered an SPF of 76.19. Further, in data set [2], the “Maximum molar extinction coefficient UVA” value is 49580 M⁻¹ cm⁻¹ and the “Maximum molar extinction coefficient UVB” value amounted to 41750 M⁻¹ cm⁻¹. Moreover, in data set [2] (A1cm^1%), the “Maximum specific absorbance UVA” value came out at 789 and the “Maximum specific absorbance UVB” value turned out to be 751. For the same compound, in data set [2] (the 'at ...' part of the cell), the “Wavelength of maximum molar extinction coefficient UVA” value is “at 345 nm”, the “Wavelength of maximum molar extinction coefficient UVB” value is given as “at 310 nm”, the “Wavelength of maximum specific absorbance UVA” value was “at 345 nm” and the “Wavelength of maximum specific absorbance UVB” value is on record as “at 310 nm”.
`COc1ccc(C(=O)CC(=O)c2ccc(C(C)(C)C)cc2)cc1` [Parsol 1789 ®, reference compound]: the Absorption peaks in data set [3] is 360 nm. In data set [1], this compound registered an SPF of 51.1. Further, the “Maximum molar extinction coefficient UVA” value in data set [2] was found to be 34100 M⁻¹ cm⁻¹. In addition, in data set [2] (UVC band), the “Maximum molar extinction coefficient UVC” value is listed as 8633 at M^−1 cm^−1. The “Maximum specific absorbance UVA” value in data set [2] (A1cm^1%) amounted to 1100. Besides, in data set [2] (A1cm^1%, UVC band), the “Maximum specific absorbance UVC” value was found to be 278 at. In addition, in data set [2] (the 'at ...' part of the cell), the “Wavelength of maximum molar extinction coefficient UVA” value is “at 360 nm”, the “Wavelength of maximum molar extinction coefficient UVC” value is recorded as 275 nm, the “Wavelength of maximum specific absorbance UVA” value was “at 360 nm” and the “Wavelength of maximum specific absorbance UVC” value turned out to be 275 nm.
As to `c1ccc(-c2nnc(-c3ccc(-c4nnc(-c5ccccc5)c(-c5ccccc5)n4)cc3)nc2-c2ccccc2)cc1` [WP30, 1,4-bis(5,6-diphenyl-1,2,4-triazin-3-yl)benzene], in data set [4], the “Photostability at 5 MED, mean” value worked out at 77.75 and the “Photostability at 10 MED, mean” value is 56.12. In data set [3], the “Spectral distribution (UV bands absorbed)” value (“Spectral distribution” for short) was “absorb in UVB and UVA”; the Absorption peaks is listed as 325 nm. In addition, in data set [5], the “Solubilities: Soluble (solvent in which the compound is soluble)” value (“Solubilities: Soluble” for short) is on record as “DMSO or hot DMF; also recorded: Ethyl acetate (PS)”; the “Solubilities: Insoluble (solvent in which the compound is insoluble)” value (“Solubilities: Insoluble” below) is “Acetonitrile and Benzene and Myritol and Transcutol and Water and MeOH and CHCl3 and Acetone”. The “Maximum molar extinction coefficient UVA” value in data set [2] was 50200 M⁻¹ cm⁻¹. Also, the “Maximum specific absorbance UVA” value in data set [2] (A1cm^1%) is 928. Also, in data set [2] (the 'at ...' part of the cell), the “Wavelength of maximum molar extinction coefficient UVA” value is “at 325 nm” and the “Wavelength of maximum specific absorbance UVA” value is reported as “at 325 nm”.
As to `c1ccc(-c2nnc(-c3ccc(-c4ccc(-c5nnc(-c6ccccc6)c(-c6ccccc6)n5)cc4)cc3)nc2-c2ccccc2)cc1` [WP135], in data set [4], the “Photostability at 5 MED, mean” value was 57.45 and the “Photostability at 10 MED, mean” value was 33.66. In data set [3], the “Spectral distribution” value was “absorb in UVB and UVA”; the Absorption peaks stood at 330 nm. For the same compound, in data set [2], the “Maximum molar extinction coefficient UVA” value is 57000 M⁻¹ cm⁻¹. In data set [2] (A1cm^1%), the “Maximum specific absorbance UVA” value was found to be 924. For the same compound, in data set [2] (the 'at ...' part of the cell), the “Wavelength of maximum molar extinction coefficient UVA” value is listed as “at 330 nm” and the “Wavelength of maximum specific absorbance UVA” value is “at 330 nm”.
As for `CCCCCC[C@H](C)Oc1ccc(-c2nnc(-c3ccc(-c4nnc(-c5ccc(O[C@@H](C)CCCCCC)cc5)c(-c5ccc(O[C@@H](C)CCCCCC)cc5)n4)cc3)nc2-c2ccc(O[C@@H](C)CCCCCC)cc2)cc1` [WP149, 1,4-bis[5,6-bis(4,1-methylheptyloxyphenyl)-1,2,4-triazine-3-yl]benzene], the “Photostability at 5 MED, mean” value in data set [4] worked out at 80.40. In addition, the “Photostability at 10 MED, mean” value in data set [4] is 38.16. Moreover, the “Solubility (%)” value is 4.5% in data set [5] (setting [6]), 2% in data set [5] (excipient Isopropyl adipate) and 2.5% in data set [5] (excipient Myritol 318 ® (caprylic/capric triglycerides)).
Regarding `CC(C)(C)CC(C)(C)c1cc(Cc2cc(C(C)(C)CC(C)(C)C)cc(-n3nc4ccccc4n3)c2O)c(O)c(-n2nc3ccccc3n2)c1` [Tinosorb M ®, reference compound], in data set [1], the SPF was 54.07. Besides, in data set [2], the “Maximum molar extinction coefficient UVA” value was 36400 M⁻¹ cm⁻¹ and the “Maximum molar extinction coefficient UVB” value came to 36600 M⁻¹ cm⁻¹. Also, in data set [2] (A1cm^1%), the “Maximum specific absorbance UVA” value is reported as 552 and the “Maximum specific absorbance UVB” value is 556. Further, in data set [2] (the 'at ...' part of the cell), the “Wavelength of maximum molar extinction coefficient UVA” value is given as “at 345 nm”, the “Wavelength of maximum molar extinction coefficient UVB” value was “at 305 nm”, the “Wavelength of maximum specific absorbance UVA” value is given as “at 345 nm” and the “Wavelength of maximum specific absorbance UVB” value was “at 305 nm”.
As to `CCCCCCCCCCCCc1ccc(-c2nnc(-c3ccc(-c4nnc(-c5ccc(CCCCCCCCCCCC)cc5)c(-c5ccc(CCCCCCCCCCCC)cc5)n4)cc3)nc2-c2ccc(CCCCCCCCCCCC)cc2)cc1` [WP107, 1,4-bis[5,6-bis(4-dodecylphenyl)-1,2,4-triazine-3-yl]benzene], in data set [4], the “Photostability at 5 MED, mean” value is on record as 89.27 and the “Photostability at 10 MED, mean” value is 84.75. Also, in data set [3], the “Spectral distribution” value is “absorb in UVB and UVA”; the Absorption peaks is 300 nm. For the same compound, the “Solubility (%)” value in data set [5] (excipient Arlasolve DMI ® (dimethyl isosorbide)) worked out at 1%. In addition, the “Solubility (%)” value in data set [5] (setting [6]) is on record as 1%. In addition, in data set [5] (excipient PEG400 ® (polyethylene glycol)), the “Solubility (%)” value was 1%. For the same compound, in data set [5], the “Solubilities: Soluble” value was “DCM and CHCl3 and Toluene and Octanol and Ethyl acetate and DMSO”; the “Solubilities: Insoluble” value is “EtOH and Acetic acid and MeOH and Myritol and Transcutol”. Besides, in data set [2], the “Maximum molar extinction coefficient UVA” value stood at 95000 M⁻¹ cm⁻¹ and the “Maximum molar extinction coefficient UVB” value came out at 92000 M⁻¹ cm⁻¹. Further, in data set [2] (A1cm^1%), the “Maximum specific absorbance UVA” value was found to be 783 and the “Maximum specific absorbance UVB” value is recorded as 757. Moreover, in data set [2] (the 'at ...' part of the cell), the “Wavelength of maximum molar extinction coefficient UVA” value was “at 335 nm”, the “Wavelength of maximum molar extinction coefficient UVB” value is “at 300 nm”, the “Wavelength of maximum specific absorbance UVA” value is “at 335 nm” and the “Wavelength of maximum specific absorbance UVB” value was “at 300 nm”.
With `c1ccc(-c2nnc(-c3cccc(-c4nnc(-c5ccccc5)c(-c5ccccc5)n4)c3)nc2-c2ccccc2)cc1` [WP76, 1,3-bis(5,6-diphenyl-1,2,4-triazin-3-yl)benzene], in data set [4], the “Photostability at 5 MED, mean” value was 69.23 and the “Photostability at 10 MED, mean” value is on record as 62.53. Also, in data set [3], the “Spectral distribution” value is on record as “absorbs in UVB” and the Absorption peaks is recorded as 290 nm. In data set [5], the “Solubilities: Soluble” value is “DMSO or hot DMF”; the “Solubilities: Insoluble” value was “Water and MeOH and CHCl3 and Acetone and Acetonitrile and Benzene”. In addition, the “Maximum molar extinction coefficient UVB” value in data set [2] turned out to be 54000 M⁻¹ cm⁻¹. For the same compound, the “Maximum specific absorbance UVB” value in data set [2] (A1cm^1%) was determined as 998. Moreover, in data set [2] (the 'at ...' part of the cell), the “Wavelength of maximum molar extinction coefficient UVB” value is recorded as “at 290 nm” and the “Wavelength of maximum specific absorbance UVB” value is “at 290 nm”.

The values are drawn from patent US7816520B2, “5,6-diphenyl-1,2,4-triazinic dimeric derivatives and the use thereof in the form of sun-protective agents” (Pierre Fabre Dermo-Cosmetique, priority 2004, dated 2010).
